# Data reported in patent publication US20010055627A1, “Compositions And Methods For Regulating Lipoproteins And Hypercholesterolemia With Limonoids, Flavonoids And Tocotrienols” (priority 1997, published 2001).
# Read-outs that look alike come from different tables or passages of the source.
# Legend:
# [1] = test system: apo-B production in HepG2 cells; assay: Apo-B content of medium of HepG2 cells by ELISA; assay type: cell-based, human; details: for effect on apo-B levels/content / reduction of medium apo-B levels: HepG2, 24 h; for reduction of medium apo-B levels: 50 μg/mL, per mg cell protein, versus control
# Description: Cell Culture: Confluent HepG2 cells were preincubated in minimum essential medium (MEM) containing 1.0% bovine serum albumin (BSA) for 24 hours. This was followed by a second 24 hour incubation with or without various non-toxic concentrations of naringenin or hesperitin (7.5-60 ug/ml). At the end of the second 24 hour incubation, the apo-B content of the media was determined by enzyme-lined immunosorbent assay (ELISA) (Young et al., 1986, Clin. Chem. 32:1484-1490).
# Protein Determination: The soluble cellular protein was extracted and measured using Pierce Coomassie Plus Protein Assay.
# (§1) The limonoids, limonin and nomilin were examined for the cholesterol-lowering potential in HepG2 cells. Confluent HepG2 cells were preincubated for 24 h in a lipoprotein-free medium in which the fetal bovine serum was replaced by albumin to inhibit cell proliferation and to stimulate synthesis of cholesterol-containing lipoproteins. Cells were subsequently incubated for another 24 h in the same medium in the presence or absence of limonoids at the highest concentrations sustaining 100% cell viability, as determined by 3-(4,5-dimethylthiazol-2-yl)-2,5-diphenyltetrazolium bromide (MTT) viability assay. The limonoids were added to the cell culture medium after solubilization in dimethyl sulfoxide (DMSO). At the end of the incubation, culture media were collected and the concentration of the LDL structural protein, apo-B, was measured by Elisa by procedures already described in Section 6.0. Amount of lipoprotein-associated apo-B in the media (net apo-B secretion) was determined as described previously, calculated per mg cell protein and expressed as percent of control.
# Apo-B productioon (the structural protein of LDL) was studied in HepG2 cells, using a 24. The effect of flavonoids on apo-B production after 24 h incubation of cells and measuring apo-B by Elisa as described above. All flavonoids, reduced the apo-B levels dose dependently.
# [2] = test system: hamster model of experimental hypercholesterolemia; assay: Serum lipids in hamster model of experimental hypercholesterolemia (casein, cholesterol-enriched diet); assay type: in vivo, Golden Syrian hamsters; details: hamsters; for HDL cholesterol (serum) / Total cholesterol (serum) / Total triacylglycerols (serum) / VLDL + LDL Cholesterol (serum) / VLDL + LDL/HDL cholesterol ratio: 35 days on diet; for HDL cholesterol (serum) / Total cholesterol (serum) / Total triacylglycerols (serum): supplement level as in label; for HDL cholesterol (serum) / Total cholesterol (serum) / VLDL + LDL Cholesterol (serum) / VLDL + LDL/HDL cholesterol ratio: mean; for Total triacylglycerols (serum): means ± SD; for VLDL + LDL Cholesterol (serum): difference between total and HDL cholesterol
# Description: Extracted flavonoids and a tocotrienol-rich preparation from palm oil, all provided by KGK Synergize Inc. London, Ontario, were tested in the hamster model of experimental hypercholesterolemia. The purpose of the study was to establish whether in this model, 2% supplementation of casein diet with palm tocotrienol preparation containing 70% of pure tocotrienols α-, γ- and δ-(TTP), or a similar 2% supplementation with flavonoids, hesperidin extrated from oranges and naringin extrated from grapefruit, could lower the elevated LDL cholesterol levels induced by casein. A further purpose of the study was to determine whether supplementation with 2% TTP in combination with 2% hesperidin or 2% naringin could result in synergistic cholesterol-lowering effects. Synergistic cholesterol-lowering responses have been observed for combinations of tocotrienols and citrus flavonoids in human liver cell line HepG2. The additional goal of this study was to establish whether in the same hamster model of hypercholesterolemia, 0.13% supplementation of casein diet with a mixture of polymethoxylated flavones from tangerines (PMF) could lower the elevated LDL cholesterol levels induced by casein. This experiment was based on previous tests In vitro using human liver cell line HepG2, in which principal flavonoids from PMF, tangeretin and nobiletin, had much greater cholesterol-lowering potential than hesperetin or naringenin.
# In hamsters, feeding a semipurified, casein-based, cholesterol-enriched diet for the period of 5 weeks induces experimental hypercholesterolemia associated with elevation of LDL cholesterol, similar to that observed in humans.
# (§2) Fifty four male Golden Syrian hamsters weighing 100-120 g at arrival were housed individually in a constant temperature 21-24° C. and with 12 h light:dark cycle. The animals were fed ground chow diet for 1 week. Thereafter, they were divided into seven groups (six groups of 8 animals and one group of 6 animals), each with similar average body weight, and fed experimental diets for 35 days. Food and water were provided at libitum. Food consumption was estimated during the last two weeks of treatment, for thee consecutive days during each week.
# (§3) The basal composition was similar to that described earlier. All diets contained 25% casein and 0.1% cholesterol. Experimental diets contained TTP and/or principal flavonoids, hesperidin or naringenin, added at indicated levels at the expense of rice flour.
# At the end of the study, the animals were fasted overnight and blood samples were taken by heart puncture. Total cholesterol in whole serum and in HDL fraction as well as total triacylglycerols were measured by enzymatic timed-endpoint methods, using the Beckman Coulter reagents (CHOL Reagent, HDLD HDL Reagent and TG Triglycerides GPO Reagent, respectively). All measurements were performed using SYNCHON LX System. VLDL+LDL cholesterol concentrations were calculated as a difference between total and HDL cholesterol. Results obtained were analyzed by one-way ANOVA followed by Dunnet's or Student-Newman-Keuls test for all groups and additionally by t-test for the PMF vs. the control group. Significant differences were reported at p<0.05.
# [3] = Growth performance of hamsters fed experimental diets; assay type: in vivo, Golden Syrian hamsters; details: supplement level as in label, means ± SD; for Growth Rate: diet for 35 days; for Food Consumption: last two weeks of treatment
# Description: as §2, §3
# [4] = test system: casein-induced hypercholesterolemia; assay: Serum lipoprotein cholesterol in rabbits fed cholesterol-free casein diet with citrus juice; assay type: in vivo; details: rabbits on casein diet, 3 weeks; hesperitin given as orange juice, naringenin as grapefruit juice (two times regular strength)
# Source text: The effect of naringenin and hesperetin on casein-induced hypercholesterolemia was studied in rabbits. In each of the two experiments, rabbits were assigned to thee experimental groups. Each group was given semipurified, cholesterol-free casein diet and either water, orange juice or grapefruit juice to drink. The control group received water to drink and the experimental groups were given either orange juice or grapefruit juice (reconstituted concentrates made up to two times the regular strength). […] FIG. 1 depicts the design of the experiment.
# Dextrose in the diets of the hesperitin (orange juice) and naringenin (grapefruit juice) groups was reduced to account for the sugar consumed via citrus juices. All other dietary components were left unchanged. (Table 1).
# Serum Analysis: At the end of the study, VLDL, LDL and HDL fractions were separated by discontinuous density gradient ultracentrifugation. Total cholesterol in serum and in each lipoprotein fraction were measured using the Boehinger Manheim CHOL kit (Manheim, Germany).
# [5] = test system: 14C-acetate incorporation into cellular lipids in HepG2 cells; assay: 14C-acetate incorporation into cellular lipids of HepG2 cells; assay type: cell-based, human; details: HepG2, 24 h, 50 μg/ml (highest non-toxic concentration)
# Description: ^14C-acetate Incorporation: To determine whether exposure to flavonoids can also alter intracellular lipid metabolism, confluent HepG2 cells were incubated for 24 hours with the highest apo-B-reducing, non-toxic concentration of these flavonoids, in the presence of ^14C-acetate (0.5u Ci/ml medium). Radiolabelled lipids were then extracted from cells using heptane/isopropyl alcohol (3:2, v/v), and separated by thin layer chomatrography. A hexane/ethyl ether/acetic acid solvent (75:25:1, v/v) was used to separate cholesterol, cholesterol esters and triglycerides. Lipid fractions were scraped into scintillation vials and the radioactivity was measured using Beckman Scintillation Counter.
# To determine whether exposure to limonin altered intracellular lipid metabolism, confluent HepG2 cells were incubated for 24 h with or without the highest non-cytotoxic concentration of limonin. During the last 5 h of the incubation, ^14C-acetate (0.5 μCi/mL) was added to the medium. The extraction and separation of cellular lipids was done described above.
# HepG2 cells = assay: MTT viability assay, highest non-toxic concentration; assay type: cell-based, human; details: HepG2, 100% cell viability by MTT
# Description: as §1
# [6] = five weeks, versus control diet, 2% in diet (PMF 0.13%)
# [7] = Homo sapiens, HepG2, comparison of limonin and flavonoids, FIG. 5, read-out: IC50 apo-B content
smiles,measurement,setting,value
COc1ccc(-c2cc(=O)c3c(OC)c(OC)c(OC)c(OC)c3o2)cc1 [tangeretin],IC50 apo-B production,"[1]; HepG2, 24 h incubation, ELISA",2.5 µg/mL
C[C@@H]1O[C@@H](O[C@H]2[C@H](Oc3cc(O)c4c(c3)O[C@H](c3ccc(O)cc3)CC4=O)O[C@H](CO)[C@@H](O)[C@@H]2O)[C@H](O)[C@H](O)[C@H]1O [naringin],HDL cholesterol (serum),[2],3.89 mM/L
same,Total cholesterol (serum),[2],6.56 mM/L
same,Total triacylglycerols (serum),[2],3.58 ± 1.40 mM/L
same,VLDL + LDL Cholesterol (serum),[2],2.66 mM/L
same,VLDL + LDL/HDL cholesterol ratio,[2],0.68
same,Percent change HDL cholesterol,"[2]; 35 days, versus control diet",−11%
same,Percent change Total cholesterol,"[2]; 35 days, versus control diet",−11%
same,Percent change VLDL + LDL Cholesterol,"[2]; 35 days, versus control diet",−12%
same,reduction of serum HDL cholesterol,[2]; [6],11%
same,reduction of serum total cholesterol,[2]; [6],11%
same,Growth Rate,[3],1.03 ± 0.26 g/day
same,Food Consumption,[3],10.44 ± 2.36 g/day
COc1ccc([C@@H]2CC(=O)c3c(O)cc(O)cc3O2)cc1O [hesperetin],effect on apo-B levels/content,[1],reduced the apo-B content in a dose-dependent manner
same,IC50 apo-B production,"[1]; HepG2, 24 h incubation, ELISA",43.0 µg/mL
same,IC50,"[1]; HepG2, comparison of limonin and flavonoids, FIG. 5, read-out: IC50 apo-B content",43 µM
same,reduction of LDL cholesterol levels compared with those given water,[4],43%
CC(=O)O[C@H]1CC(=O)OC(C)(C)[C@@H]2CC(=O)[C@]3(C)[C@H](CC[C@@]4(C)[C@H](c5ccoc5)OC(=O)[C@H]5O[C@]543)[C@@]12C [nomilin],reduction of medium apo-B levels,[1],40%
COc1ccc([C@@H]2CC(=O)c3c(O)cc(O[C@@H]4O[C@H](CO[C@@H]5O[C@@H](C)[C@H](O)[C@@H](O)[C@H]5O)[C@@H](O)[C@H](O)[C@H]4O)cc3O2)cc1O [hesperidin],HDL cholesterol (serum),[2],4.07 mM/L
same,Total cholesterol (serum),[2],6.73 mM/L
same,Total triacylglycerols (serum),[2],2.64 ± 1.47 mM/L
same,VLDL + LDL Cholesterol (serum),[2],2.66 mM/L
same,VLDL + LDL/HDL cholesterol ratio,[2],0.66
same,Percent change HDL cholesterol,"[2]; 35 days, versus control diet",−7%
same,Percent change Total cholesterol,"[2]; 35 days, versus control diet",−9%
same,Percent change Total triacylglycerols,"[2]; 35 days, versus control diet",−36%
same,Percent change VLDL + LDL Cholesterol,"[2]; 35 days, versus control diet",−12%
same,reduction of serum HDL cholesterol,[2]; [6],7%
same,reduction of serum total triacylglycerols,[2]; [6],36%
same,Growth Rate,[3],0.98 ± 0.24 g/day
same,Food Consumption,[3],13.15 ± 4.72 g/day
COc1ccc(-c2cc(=O)c3c(OC)c(OC)c(OC)c(OC)c3o2)cc1OC [nobiletin],IC50 apo-B production,"[1]; HepG2, 24 h incubation, ELISA",4.9 µg/mL
O=C1C[C@@H](c2ccc(O)cc2)Oc2cc(O)cc(O)c21 [naringenin],effect on apo-B levels/content,[1],reduced the apo-B content in a dose-dependent manner
same,IC50,"[1]; Homo sapiens, HepG2, 24 h incubation, ELISA, read-out: IC50 apo-B production",48.5 µg/mL
same,IC50,[1]; [7],48.5 µM
same,reduction of LDL cholesterol levels compared with those given water,[4],32%
CC1(C)O[C@H]2CC(=O)OC[C@]23[C@H]2CC[C@@]4(C)[C@H](c5ccoc5)OC(=O)[C@H]5O[C@]54[C@]2(C)C(=O)C[C@@H]13 [limonin],"effect on 14C-acetate incorporation into cellular cholesterol, cholesteryl esters and triacylglycerols",[5],no effect
same,effect on apo-B levels/content,[1],reduced the apo-B content in a dose-dependent manner
same,reduction of medium apo-B levels,[1],74%
same,"IC50 concentration times lower than for both flavonoids (hesperetin, naringenin)",[1]; HepG2 apo-B,2-2.4 times
same,IC50,[1]; [7],20.5 µM
same,highest non-toxic concentration,HepG2 cells,50 µg/mL
